From ChEMBL document CHEMBL1201862, “PubChem BioAssay data set” (2004)
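Dose response: 5 concentrations. Exposure: 48 h. Format: 96-well plates. Endpoint: linear interpolation; highest concentration if not reached. Here, GI50 denotes the concentration required for 50% inhibition of growth.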 Calls of active or inactive are those of the source. Rule as the data show it: active = GI50 up to about 1.1 µM and inactive = higher.

Assays:
Test in all cases: inhibition of tumour cell growth, NCI panel, 48 h
CAKI-1 = test system: CAKI-1
LOX IMVI = test system: LOX IMVI
SNB-19 = test system: SNB-19
OVCAR-3 = test system: OVCAR-3
A498 = test system: A498
RXF 393 = test system: RXF 393
ACHN = test system: ACHN
UACC-257 = test system: UACC-257
A549 = test system: A549
MDA-N = test system: MDA-N
MDA-MB-231 = test system: MDA-MB-231
U-251 = test system: U-251
NCI/ADR-RES = test system: NCI/ADR-RES
786-0 = test system: 786-0
EKVX = test system: EKVX
NCI-H522 = test system: NCI-H522
HOP-92 = test system: HOP-92
SK-OV-3 = test system: SK-OV-3
SK-MEL-5 = test system: SK-MEL-5
RPMI-8226 = test system: RPMI-8226

Row | SMILES | GI50 (CAKI-1) | GI50 (LOX IMVI) | GI50 (SNB-19) | GI50 (OVCAR-3) | GI50 (A498) | GI50 (RXF 393) | GI50 (ACHN) | GI50 (UACC-257) | GI50 (A549) | GI50 (MDA-N) | GI50 (MDA-MB-231) | GI50 (U-251) | GI50 (NCI/ADR-RES) | GI50 (786-0) | GI50 (EKVX) | GI50 (NCI-H522) | GI50 (HOP-92) | GI50 (SK-OV-3) | GI50 (SK-MEL-5) | GI50 (RPMI-8226)
1 | O=C1Nc2ccccc2/C1=N/NC(=S)Nc1cccc(Cl)c1 | 8.3 µM (inactive) | 5.37 µM (inactive) | 16.6 µM (inactive) | 2.68 µM (inactive) | 4.03 µM (inactive) | 7.6 µM (inactive) | 6.34 µM (inactive) | 29.4 µM (inactive) | 7.08 µM (inactive) | 27.9 µM (inactive) | 11.1 µM (inactive) | 10.8 µM (inactive) | 2.37 µM (inactive) | 5.12 µM (inactive) | 10.3 µM (inactive) | 21.9 µM (inactive) | 18.7 µM (inactive) | 20.7 µM (inactive) | 4.57 µM (inactive) | 
2 | O=C(c1ccccc1)n1c(Cc2ccccc2)nc2cc(C34CC5CC(CC(C5)C3)C4)ccc21 | > 100 µM (inactive) | 30.5 µM (inactive) | 58.1 µM (inactive) |  | 62.1 µM (inactive) | 27.4 µM (inactive) | 34.8 µM (inactive) | 53.1 µM (inactive) | 37.7 µM (inactive) | 47 µM (inactive) | 54.2 µM (inactive) | 44.6 µM (inactive) | 31.8 µM (inactive) | 61.9 µM (inactive) | 81.8 µM (inactive) | 37.3 µM (inactive) | 24 µM (inactive) | 96.2 µM (inactive) | 27 µM (inactive) | 31.8 µM (inactive)
3 | O=C(COc1ccc(OCC(=O)N2C(=O)CC(=O)N(c3ccccc3)C2=S)cc1)N1C(=O)CC(=O)N(c2ccccc2)C1=S | 0.851 µM (active) |  | 69.7 µM (inactive) |  | 80.2 µM (inactive) | 25.5 µM (inactive) | 66.7 µM (inactive) | 82.2 µM (inactive) | 40.4 µM (inactive) | 68.7 µM (inactive) | 46.8 µM (inactive) | 46.1 µM (inactive) | > 100 µM (inactive) | 56.1 µM (inactive) | > 100 µM (inactive) | 38.1 µM (inactive) | 52 µM (inactive) | 77.4 µM (inactive) |  | 31.1 µM (inactive)
4 | O=c1c2cc(-c3ccccc3)sc2nc2n1N=C(c1ccc(Cl)cc1)CS2 | > 100 µM (inactive) | > 100 µM (inactive) |  | > 100 µM (inactive) | > 100 µM (inactive) | > 100 µM (inactive) | > 100 µM (inactive) | > 100 µM (inactive) | > 100 µM (inactive) | > 100 µM (inactive) | > 100 µM (inactive) | > 100 µM (inactive) | > 100 µM (inactive) | > 100 µM (inactive) | > 100 µM (inactive) | > 100 µM (inactive) | > 100 µM (inactive) | > 100 µM (inactive) | > 100 µM (inactive) | > 100 µM (inactive)
5 | O=C1N/N=C\c2ccc(cc2)OCc2cccc(n2)COc2ccc(cc2)/C=N\NC1=O |  |  | > 25 µM (inactive) | > 25 µM (inactive) | > 25 µM (inactive) | > 25 µM (inactive) | > 25 µM (inactive) | > 25 µM (inactive) | > 25 µM (inactive) | > 25 µM (inactive) | > 25 µM (inactive) | > 25 µM (inactive) | > 25 µM (inactive) | > 25 µM (inactive) | > 25 µM (inactive) | > 25 µM (inactive) | > 25 µM (inactive) | > 25 µM (inactive) |  | > 25 µM (inactive)
6 | O=S(=O)(Nc1ccccc1S(=O)(=O)c1ccccc1)c1ccccc1 | > 100 µM (inactive) | > 100 µM (inactive) | > 100 µM (inactive) | 65.6 µM (inactive) | 91.8 µM (inactive) | > 100 µM (inactive) | 82.2 µM (inactive) | 73.1 µM (inactive) | 67.1 µM (inactive) | > 100 µM (inactive) | > 100 µM (inactive) | 41.1 µM (inactive) | 57.1 µM (inactive) | > 100 µM (inactive) | 29.4 µM (inactive) | 41.2 µM (inactive) | 76.9 µM (inactive) | > 100 µM (inactive) | 58.6 µM (inactive) | 32.3 µM (inactive)
7 | CCCCC(=O)OC[n+]1ccc2c(C)c3[nH]c4ccccc4c3c(C)c2c1 | 1.25 µM (inactive) | 0.493 µM (active) | 0.466 µM (active) | 1.22 µM (inactive) | 0.681 µM (active) | 0.297 µM (active) | 0.187 µM (active) | 1.43 µM (inactive) | 0.267 µM (active) | 0.484 µM (active) | 0.174 µM (active) | 0.574 µM (active) | 0.526 µM (active) | 0.298 µM (active) | 0.497 µM (active) | 0.773 µM (active) | 1.62 µM (inactive) | 0.74 µM (active) | 1.39 µM (inactive) | 0.195 µM (active)
8 | CSCCCNC(=O)[C@H](CSC)NC(=O)c1csc(CCNC(=O)[C@@H](NSc2ccccc2[N+](=O)[O-])C(C)O)n1 (stereo not given in full) | > 100 µM (inactive) | > 100 µM (inactive) | > 100 µM (inactive) | > 100 µM (inactive) | > 100 µM (inactive) | > 100 µM (inactive) | > 100 µM (inactive) | > 100 µM (inactive) | > 100 µM (inactive) | > 100 µM (inactive) | > 100 µM (inactive) | > 100 µM (inactive) | > 100 µM (inactive) | > 100 µM (inactive) | > 100 µM (inactive) | > 100 µM (inactive) | > 100 µM (inactive) | > 100 µM (inactive) | > 100 µM (inactive) | 
9 | CC1=NNC(=O)C1C1CC(c2c[nH]c3ccccc23)=NNC1=O (stereo not given) | > 100 µM (inactive) |  | > 100 µM (inactive) | > 100 µM (inactive) | > 100 µM (inactive) | > 100 µM (inactive) | > 100 µM (inactive) | > 100 µM (inactive) | > 100 µM (inactive) | > 100 µM (inactive) | > 100 µM (inactive) | > 100 µM (inactive) | > 100 µM (inactive) | > 100 µM (inactive) | 11.9 µM (inactive) | > 100 µM (inactive) | > 100 µM (inactive) | > 100 µM (inactive) | > 100 µM (inactive) | > 100 µM (inactive)
10 | C=CC(Cl)(CBr)CCC(Br)=C(C)C (stereo not given) | 9.31 µM (inactive) | 15.7 µM (inactive) | 34.5 µM (inactive) | 24.5 µM (inactive) | > 100 µM (inactive) | 17.5 µM (inactive) | 21.6 µM (inactive) | 25.8 µM (inactive) | 43.6 µM (inactive) | 19.4 µM (inactive) | 19.4 µM (inactive) | 16.9 µM (inactive) | 28.8 µM (inactive) | 25.6 µM (inactive) | 35.4 µM (inactive) | 16.9 µM (inactive) | 16.9 µM (inactive) |  | 17.1 µM (inactive) | 21.1 µM (inactive)
11 | Cc1nc2c(=O)[nH]c3ccc(Cl)cc3c2o1 | > 100 µM (inactive) | > 100 µM (inactive) | > 100 µM (inactive) | > 100 µM (inactive) | > 100 µM (inactive) | > 100 µM (inactive) | > 100 µM (inactive) | > 100 µM (inactive) | > 100 µM (inactive) | > 100 µM (inactive) | > 100 µM (inactive) | > 100 µM (inactive) | > 100 µM (inactive) | > 100 µM (inactive) | 69.7 µM (inactive) | > 100 µM (inactive) | > 100 µM (inactive) | > 100 µM (inactive) | > 100 µM (inactive) | > 100 µM (inactive)
12 | CC(C)(C)OC(=O)CN1C(=O)CC1CC(=O)c1ccccc1 (stereo not given) | 22.4 µM (inactive) | 16.9 µM (inactive) | 19.8 µM (inactive) | 18.4 µM (inactive) | 27.4 µM (inactive) | 18.5 µM (inactive) | 21.2 µM (inactive) | 18.2 µM (inactive) | > 100 µM (inactive) | 20.3 µM (inactive) | 17.2 µM (inactive) | 16 µM (inactive) | 35.1 µM (inactive) | 17.5 µM (inactive) | 17.2 µM (inactive) | 15.5 µM (inactive) | 37.4 µM (inactive) |  | 18.2 µM (inactive) | 3.05 µM (inactive)
13 | Cc1cccc(NC(=O)/C=C/c2ccc([N+](=O)[O-])cc2)c1 | > 39.3 µM (inactive) | > 36.3 µM (inactive) | > 33.2 µM (inactive) | 12.5 µM (inactive) | > 100 µM (inactive) | 34 µM (inactive) | 14.9 µM (inactive) | > 39 µM (inactive) | > 41.7 µM (inactive) | > 30.7 µM (inactive) | 22.4 µM (inactive) | > 38 µM (inactive) | 29.8 µM (inactive) | > 34.6 µM (inactive) | 23.2 µM (inactive) | 7.45 µM (inactive) | 15.8 µM (inactive) | > 46.5 µM (inactive) | > 36.4 µM (inactive) | 
14 | O=c1[nH]cc(/N=C/c2cc(Cl)cc(Cl)c2O)c(=O)[nH]1 | 24.6 µM (inactive) |  | 32.8 µM (inactive) | 17.7 µM (inactive) | > 100 µM (inactive) | 26.2 µM (inactive) | 36.3 µM (inactive) | 27.7 µM (inactive) | > 100 µM (inactive) | 29.2 µM (inactive) | 48.3 µM (inactive) | 32.7 µM (inactive) | 21.8 µM (inactive) | 20.7 µM (inactive) | 30.7 µM (inactive) | 21.5 µM (inactive) | 27.4 µM (inactive) | 24.7 µM (inactive) | 19.1 µM (inactive) | 22.1 µM (inactive)
